As usually defined, the Ki is a measure of affinity in units of concentration, obtained from inhibition or displacement. Higher therefore signals lower affinity. By inhibition is commonly meant the drop in the measured response relative to a control, in per cent.

The first assay concerns the target CDK2 (UniProt P24941). The assay is described as follows: Enzyme Assay.
Settings: not given
On to `N#CCc1ccc(CNC(=O)c2ccc(Nc3nc(N)c(C(=O)c4c(F)cccc4F)s3)cc2)cc1`, for which the Ki was 25 nM.

Still in this assay, the particulars now being: concentration not given here.
On to `COC(CN(C)C(=O)c1ccc(Nc2nc(N)c(C(=O)c3c(F)cccc3F)s2)cc1)OC`, for which the inhibition was -7%. Take `Nc1nc(Nc2ccc(CCO)cc2)sc1C(=O)c1c(F)cccc1F`: the inhibition turned out to be 19%. With `Nc1nc(Nc2ccc(C(=O)Nc3cccc(F)c3)cc2)sc1C(=O)c1c(F)cccc1F`, the inhibition was -6%. Consider `C=C(C)CN(C)C(=O)c1ccc(Nc2nc(N)c(C(=O)c3c(F)cccc3F)s2)cc1`, for which the inhibition was -2%. On to `C=CCN(C(=O)c1ccc(Nc2nc(N)c(C(=O)c3c(F)cccc3F)s2)cc1)C1CCCCC1`, for which the inhibition is -15%. On the same count and under the same terms, under `Nc1nc(Nc2ccc(C(=O)N3CCOCC3)cc2)sc1C(=O)c1c(F)cccc1F` stands -4%; under `CCN(CC)CCN(C)C(=O)c1ccc(Nc2nc(N)c(C(=O)c3c(F)cccc3F)s2)cc1`, -9%. The same measure, in the same setting: under `CCCCN(CCCC)C(=O)c1ccc(Nc2nc(N)c(C(=O)c3c(F)cccc3F)s2)cc1` stands -7%. With `CN(C)CCCN1CCN(C(=O)c2ccc(Nc3nc(N)c(C(=O)c4c(F)cccc4F)s3)cc2)CC1`, the inhibition is -14%.

Take `Nc1nc(Nc2ccc(C(=O)NCCc3ccncc3)cc2)sc1C(=O)c1c(F)cccc1F`: the inhibition is -11%.

Regarding `Cc1cccc(CN(C)C(=O)c2ccc(Nc3nc(N)c(C(=O)c4c(F)cccc4F)s3)cc2)n1`, the inhibition is -1%.

Regarding `CN(C)CCCCNC(=O)c1ccc(Nc2nc(N)c(C(=O)c3c(F)cccc3F)s2)cc1`, the inhibition was -4%. Turning to `CC1CC(NC(=O)c2ccc(Nc3nc(N)c(C(=O)c4c(F)cccc4F)s3)cc2)CC(C)(C)C1` (stereo unspecified), the inhibition was -11%. Still for that read-out and setting: under `CC(CCc1ccccc1)NC(=O)c1ccc(Nc2nc(N)c(C(=O)c3c(F)cccc3F)s2)cc1` (stereo unspecified) stands -6%; under `Nc1nc(Nc2ccc(C(=O)Nc3ccc(Cl)cc3CO)cc2)sc1C(=O)c1c(F)cccc1F`, -11%; under `Cc1ccc(NC(=O)c2ccc(Nc3nc(N)c(C(=O)c4c(F)cccc4F)s3)cc2)cc1Cl`, -1%. Same read-out and setting: the result for `N#CCCSc1ccccc1NC(=O)c1ccc(Nc2nc(N)c(C(=O)c3c(F)cccc3F)s2)cc1` reads -14%. As for `CCSCCNC(=O)c1ccc(Nc2nc(N)c(C(=O)c3c(F)cccc3F)s2)cc1`, the inhibition is -6%. On the same count and under the same terms, under `C#CCc1ccc(NC(=O)c2ccc(Nc3nc(N)c(C(=O)c4c(F)cccc4F)s3)cc2)cc1` stands 1%; under `CN(Cc1ccccc1Cl)C(=O)c1ccc(Nc2nc(N)c(C(=O)c3c(F)cccc3F)s2)cc1`, -30%; under `CN(C)CCCCCCNC(=O)c1ccc(Nc2nc(N)c(C(=O)c3c(F)cccc3F)s2)cc1`, -16%. For the molecule `CC(C)c1cccc(NC(=O)c2ccc(Nc3nc(N)c(C(=O)c4c(F)cccc4F)s3)cc2)c1`, the inhibition was -12%. Regarding `Nc1nc(Nc2ccc(C(=O)NCCc3c(Cl)cccc3Cl)cc2)sc1C(=O)c1c(F)cccc1F`, the inhibition was -21%. Take `CSc1ccc(NC(=O)c2ccc(Nc3nc(N)c(C(=O)c4c(F)cccc4F)s3)cc2)cc1`: the inhibition was -25%. As for `CC1CN(C(=O)c2ccc(Nc3nc(N)c(C(=O)c4c(F)cccc4F)s3)cc2)CC(C)O1` (stereo unspecified), the inhibition was -10%. Take `COCCCNC(=O)c1ccc(Nc2nc(N)c(C(=O)c3c(F)cccc3F)s2)cc1`: the inhibition is -24%.

For `CCCCN(Cc1ccccc1)C(=O)c1ccc(Nc2nc(N)c(C(=O)c3c(F)cccc3F)s2)cc1`, the inhibition is -17%. For the molecule `Nc1nc(Nc2ccc(C(=O)N3CCN(CCCO)CC3)cc2)sc1C(=O)c1c(F)cccc1F`, the inhibition was -14%.

On to `Nc1nc(Nc2ccc(C(=O)NCC3CC3)cc2)sc1C(=O)c1c(F)cccc1F`, for which the inhibition worked out at 0%. `Nc1nc(Nc2ccc(C(=O)Nc3cccc(Br)c3)cc2)sc1C(=O)c1c(F)cccc1F`: the inhibition is -8%.

`CN(Cc1ccccc1)C(=O)c1ccc(Nc2nc(N)c(C(=O)c3c(F)cccc3F)s2)cc1`: the inhibition was -1%. Still for that read-out and setting: under `Nc1nc(Nc2ccc(C(=O)Nc3ccon3)cc2)sc1C(=O)c1c(F)cccc1F` stands -1%; under `C#CCN(C)C(=O)c1ccc(Nc2nc(N)c(C(=O)c3c(F)cccc3F)s2)cc1`, -14%. In the case of `Nc1nc(Nc2ccc(C(=O)Nc3ccc(Cl)cc3)cc2)sc1C(=O)c1c(F)cccc1F`, the inhibition is -10%.

Turning to `Nc1nc(Nc2ccc(C(=O)N3CCCCC3CCO)cc2)sc1C(=O)c1c(F)cccc1F` (stereo unspecified), the inhibition was -24%. The same measure, in the same setting: under `CCCN(C(=O)c1ccc(Nc2nc(N)c(C(=O)c3c(F)cccc3F)s2)cc1)C(C)CC` (stereo unspecified) stands -16%; under `COC(=O)c1ccccc1NC(=O)c1ccc(Nc2nc(N)c(C(=O)c3c(F)cccc3F)s2)cc1`, -4%; under `CN(Cc1ccncc1)C(=O)c1ccc(Nc2nc(N)c(C(=O)c3c(F)cccc3F)s2)cc1`, 1%. `N#CCCN(Cc1cccnc1)C(=O)c1ccc(Nc2nc(N)c(C(=O)c3c(F)cccc3F)s2)cc1`: the inhibition is -2%. As for `Nc1nc(Nc2ccc(O)cc2)sc1C(=O)c1c(F)cccc1F`, the inhibition was found to be 23%.

For the molecule `CCCN(CCc1ccccn1)C(=O)c1ccc(Nc2nc(N)c(C(=O)c3c(F)cccc3F)s2)cc1`, the inhibition is -12%. Regarding `CCCCN(CCO)C(=O)c1ccc(Nc2nc(N)c(C(=O)c3c(F)cccc3F)s2)cc1`, the inhibition is -7%. For the molecule `CCOC(=O)c1ccc(NC(=O)c2ccc(Nc3nc(N)c(C(=O)c4c(F)cccc4F)s3)cc2)cc1`, the inhibition was 1%. As for `CC[C@H](C)[C@@H](CO)NC(=O)c1ccc(Nc2nc(N)c(C(=O)c3c(F)cccc3F)s2)cc1`, the inhibition was -7%. On to `Nc1nc(Nc2ccc(C(=O)NCCc3ccccc3)cc2)sc1C(=O)c1c(F)cccc1F`, for which the inhibition is -19%. As for `Nc1nc(Nc2ccc(C(=O)NCCC3OCCO3)cc2)sc1C(=O)c1c(F)cccc1F`, the inhibition was -10%.

For `Cc1cccc(N2CCN(C(=O)c3ccc(Nc4nc(N)c(C(=O)c5c(F)cccc5F)s4)cc3)CC2C)c1` (stereo unspecified), the inhibition is -23%.

As to `CCN(CCO)C(=O)c1ccc(Nc2nc(N)c(C(=O)c3c(F)cccc3F)s2)cc1`, the inhibition was -16%.

For the molecule `Nc1nc(Nc2ccc(C(=O)N3CCN(CCO)CC3)cc2)sc1C(=O)c1c(F)cccc1F`, the inhibition was -43%.

As to `CCCCC(CC)NC(=O)c1ccc(Nc2nc(N)c(C(=O)c3c(F)cccc3F)s2)cc1` (stereo unspecified), the inhibition is -30%.

For the origin of these results see the Kinase Knowledgebase extract (Sharma et al. 2016).
